What was measured:
PIK3CA (human) = PIK3CA (human) (UniProt P42336); assay: Inhibition of PIK3CA Kinase Activity
PIK3CG (human) = PIK3CG (human) (UniProt P48736); assay: Inhibition of PIK3CG Kinase Activity
PIK3CG (human), sequence (P48736 whole entry, looked up): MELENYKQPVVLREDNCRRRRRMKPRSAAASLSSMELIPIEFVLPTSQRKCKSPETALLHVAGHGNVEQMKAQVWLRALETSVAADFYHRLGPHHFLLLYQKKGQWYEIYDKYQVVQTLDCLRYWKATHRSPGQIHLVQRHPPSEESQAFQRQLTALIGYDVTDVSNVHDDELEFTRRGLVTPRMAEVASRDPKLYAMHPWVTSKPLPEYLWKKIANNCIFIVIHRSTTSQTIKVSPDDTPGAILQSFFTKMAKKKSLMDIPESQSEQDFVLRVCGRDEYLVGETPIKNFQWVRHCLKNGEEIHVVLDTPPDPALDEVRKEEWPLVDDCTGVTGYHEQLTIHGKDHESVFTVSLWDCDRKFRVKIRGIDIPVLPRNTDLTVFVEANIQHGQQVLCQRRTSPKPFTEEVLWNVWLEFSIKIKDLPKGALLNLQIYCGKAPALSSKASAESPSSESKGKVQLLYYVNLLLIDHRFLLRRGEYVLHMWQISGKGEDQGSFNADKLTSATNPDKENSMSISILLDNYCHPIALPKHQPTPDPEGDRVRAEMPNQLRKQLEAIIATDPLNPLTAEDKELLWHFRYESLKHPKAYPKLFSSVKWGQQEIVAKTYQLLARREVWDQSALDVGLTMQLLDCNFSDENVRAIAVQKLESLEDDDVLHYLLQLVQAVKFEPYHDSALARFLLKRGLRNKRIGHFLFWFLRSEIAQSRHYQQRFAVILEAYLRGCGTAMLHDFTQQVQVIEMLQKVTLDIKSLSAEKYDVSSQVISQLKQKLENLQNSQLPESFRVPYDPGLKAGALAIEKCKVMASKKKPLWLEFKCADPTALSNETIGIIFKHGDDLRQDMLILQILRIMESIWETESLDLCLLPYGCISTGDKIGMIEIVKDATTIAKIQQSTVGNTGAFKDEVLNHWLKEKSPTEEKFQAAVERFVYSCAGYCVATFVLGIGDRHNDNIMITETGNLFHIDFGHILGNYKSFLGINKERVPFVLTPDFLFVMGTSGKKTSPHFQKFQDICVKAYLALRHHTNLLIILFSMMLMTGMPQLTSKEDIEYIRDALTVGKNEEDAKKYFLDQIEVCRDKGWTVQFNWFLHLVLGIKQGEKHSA

PIK3CA (human), sequence (P42336 whole entry, looked up): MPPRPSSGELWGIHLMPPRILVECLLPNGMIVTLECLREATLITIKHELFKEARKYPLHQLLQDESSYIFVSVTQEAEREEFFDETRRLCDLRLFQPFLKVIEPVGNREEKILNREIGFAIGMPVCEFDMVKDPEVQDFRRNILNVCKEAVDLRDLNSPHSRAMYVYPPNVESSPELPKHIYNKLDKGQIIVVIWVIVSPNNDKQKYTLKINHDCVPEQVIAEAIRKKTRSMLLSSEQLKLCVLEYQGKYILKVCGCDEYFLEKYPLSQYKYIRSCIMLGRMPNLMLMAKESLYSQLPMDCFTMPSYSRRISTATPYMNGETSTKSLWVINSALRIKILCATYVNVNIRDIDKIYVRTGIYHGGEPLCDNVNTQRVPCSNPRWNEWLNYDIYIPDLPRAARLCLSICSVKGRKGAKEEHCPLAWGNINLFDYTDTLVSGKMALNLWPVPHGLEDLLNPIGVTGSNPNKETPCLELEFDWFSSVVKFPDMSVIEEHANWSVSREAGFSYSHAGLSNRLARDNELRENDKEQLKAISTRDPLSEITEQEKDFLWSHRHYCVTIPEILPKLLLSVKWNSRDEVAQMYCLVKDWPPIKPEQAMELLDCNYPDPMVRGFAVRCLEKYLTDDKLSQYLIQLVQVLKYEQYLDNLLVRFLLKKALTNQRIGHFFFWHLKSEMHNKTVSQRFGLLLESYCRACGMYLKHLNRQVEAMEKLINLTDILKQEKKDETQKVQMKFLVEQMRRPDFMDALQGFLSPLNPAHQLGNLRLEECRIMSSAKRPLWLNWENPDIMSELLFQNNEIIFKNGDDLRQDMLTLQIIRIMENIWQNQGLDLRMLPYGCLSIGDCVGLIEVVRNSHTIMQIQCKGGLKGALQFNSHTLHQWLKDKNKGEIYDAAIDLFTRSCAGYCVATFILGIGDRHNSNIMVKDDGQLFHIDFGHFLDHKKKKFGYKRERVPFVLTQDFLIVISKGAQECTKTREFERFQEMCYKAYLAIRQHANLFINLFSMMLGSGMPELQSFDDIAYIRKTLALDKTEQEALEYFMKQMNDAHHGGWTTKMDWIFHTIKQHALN

Row | Structure (SMILES) | IC50 (PIK3CA (human)) [µM] | IC50 (PIK3CG (human)) [µM]
1 | CCn1nnc2c(N3CCOCC3)nc(-c3ccc(NC(=O)Nc4ccc([N+](=O)[O-])cc4)cc3)nc21 | 0.49 | –
2 | CCn1nnc2c(N3CCOCC3)nc(-c3ccc(NC(=O)Nc4ccc(C(=O)N5CCN(C)CC5)nc4)cc3)nc21 | 0.572 | –
3 | CCn1nnc2c(N3CCOCC3)nc(-c3ccc(NC(=O)Nc4ccc(N)cc4)cc3)nc21 | 0.46 | 0.00733
4 | CCn1nnc2c(N3CCOC[C@@H]3C)nc(-c3ccc(NC(=O)Nc4ccc(C(=O)NCCN5CCCCC5)cc4)cc3)nc21 | 0.613 | –
5 | CCn1nnc2c(N3CCOC[C@@H]3C)nc(-c3ccc(NC(=O)Nc4ccc(C(=O)NCCN(C)C)cc4)cc3)nc21 | 0.573 | 0.00185
6 | CCn1nnc2c(N3CCOCC3)nc(-c3ccc(NC(=O)Nc4ccc(NCc5ccc(F)nc5)cc4)cc3)nc21 | 0.569 | –
7 | CC(C)n1nnc2c(N3CCOCC3)nc(-c3ccc(NC(=O)Nc4ccc(N)cc4)cc3)nc21 | 0.473 | –
8 | CC(C)n1nnc2c(N3CCOCC3)nc(-c3ccc(NC(=O)Nc4ccc(C(=O)NCCN(C)C)cc4)cc3)nc21 | 0.572 | 0.002
9 | CCn1nnc2c(N3CCOCC3)nc(-c3ccc(NC(=O)Nc4ccc(NC(=O)NCCN5CCN(C)CC5)cc4)cc3)nc21 | 0.629 | 0.0018
10 | CCn1nnc2c(N3CCOC[C@@H]3C)nc(-c3ccc(NC(=O)Nc4ccc(C(=O)N(C)CCN(C)C)cc4)cc3)nc21 | 0.587 | 0.0022
11 | CCn1nnc2c(N3CCOCC3)nc(-c3ccc(NC(=O)Nc4ccc(C(=O)NN(C)C)cc4)cc3)nc21 | 0.531 | 0.008
12 | CCn1nnc2c(N3CCOCC3)nc(-c3ccc(NC(=O)Nc4ccc(NC(=O)N(C)CCN(C)C)cc4)cc3)nc21 | 0.588 | 0.00165
13 | Oc1cccc(-c2nc(N3CCOCC3)c3nnn(CCCCN4CCN(Cc5ccccc5)CC4)c3n2)c1 | 0.116 | 0.216
14 | CCn1nnc2c(N3CCOCC3)nc(-c3ccc(NC(=O)Nc4ccc(NC(=O)c5ccncc5)cc4)cc3)nc21 | 0.565 | 0.00185
15 | CCn1nnc2c(N3CCOCC3)nc(-c3ccc(NC(=O)Nc4ccc(NC(=O)N5CCNCC5)cc4)cc3)nc21 | 0.573 | 0.0017
16 | CCn1nnc2c(N3CCOCC3)nc(-c3ccc(NC(=O)Nc4ccc(NCc5ccncc5)cc4)cc3)nc21 | 0.551 | –

Row | Structure (SMILES) | IC50 (PIK3CA (human)) [µM] | IC50 (PIK3CG (human)) [µM]
17 | CCN1CCN(C(=O)Nc2ccc(NC(=O)Nc3ccc(-c4nc(N5CCOCC5)c5nnn(CC)c5n4)cc3)cc2)CC1 | 0.6 | 0.0009
18 | CCn1nnc2c(N3CCOCC3)nc(-c3ccc(NC(=O)Nc4ccc(NC(=O)c5cccc(N(C)C)c5)cc4)cc3)nc21 | 0.607 | 0.00183
19 | CCn1nnc2c(N3CCOCC3)nc(-c3ccc(NC(=O)Nc4ccc(NC(=O)N5CCOCC5)cc4)cc3)nc21 | 0.573 | –
20 | CC(C)n1nnc2c(N3CCOCC3)nc(-c3ccc(NC(=O)Nc4ccc(N5CCN(C)CC5)cc4)cc3)nc21 | 0.558 | –
21 | CCn1nnc2c(N3CCOCC3)nc(-c3ccc(NC(=O)Nc4ccc(NC(=O)N5CCC(N6CCCC6)CC5)cc4)cc3)nc21 | 0.64 | 0.00075
22 | Oc1cccc(-c2nc(N3CCOCC3)c3nnn(C4CCN(Cc5ccc[nH]5)CC4)c3n2)c1 | 0.062 | 0.426
23 | CCn1nnc2c(N3CCOCC3)nc(-c3ccc(NC(=O)Nc4ccc(NC(=O)NC5CCN(C)CC5)cc4)cc3)nc21 | 0.601 | 0.0017
24 | CC(C)n1nnc2c(N3CCOCC3)nc(-c3ccc(NC(=O)Nc4ccc(NS(C)(=O)=O)cc4)cc3)nc21 | 0.552 | –
25 | CCn1nnc2c(N3CCOCC3)nc(-c3ccc(NC(=O)Nc4ccc(CN5CCN(C)CC5)cc4)cc3)nc21 | 0.557 | 0.00135
26 | CCn1nnc2c(N3CCOCC3)nc(-c3ccc(NC(=O)Nc4ccc(NCc5cccnc5)cc4)cc3)nc21 | 0.551 | 0.0033
27 | CCn1nnc2c(N3CCOCC3)nc(-c3ccc(NC(=O)Nc4ccc(C(=O)Nc5cccnc5)cc4)cc3)nc21 | 0.565 | 0.00185
28 | CCn1nnc2c(N3CCOC[C@@H]3C)nc(-c3ccc(NC(=O)Nc4ccc(C(=O)N5CCC(N(C)C)CC5)cc4)cc3)nc21 | 0.613 | –
29 | CCn1nnc2c(N3CCOC[C@@H]3C)nc(-c3ccc(NC(=O)Nc4ccc(C(=O)N5CCN(C)CC5)cc4)cc3)nc21 | 0.585 | 0.00215
30 | CCn1nnc2c(N3CCOCC3)nc(-c3ccc(NC(=O)Nc4ccc(C(=O)OC)nc4)cc3)nc21 | 0.504 | –
31 | CC(C)(C)OC(=O)N1CC(n2nnc3c(N4CCOCC4)nc(-c4ccc(NC(=O)Nc5ccccc5)cc4)nc32)C1 | 0.058 | 0.79
32 | CCn1nnc2c(N3CCOCC3)nc(-c3ccc(NC(=O)Nc4ccc(C(=O)N(C)CCN(C)C)nc4)cc3)nc21 | 0.56 | 0.00185

Continued by falling IC50 (PIK3CA (human)), values first:

Row | IC50 (PIK3CA (human)) [µM] | IC50 (PIK3CG (human)) [µM] | Structure (SMILES)
33 | 0.651 | 0.00095 | CN(C)CCNC(=O)c1ccc(NC(=O)Nc2ccc(-c3nc(N4CCOCC4)c4nnn(-c5cccc(C(=O)O)c5)c4n3)cc2)cc1
34 | 0.65 | 0.0008 | CN(C)CCNC(=O)c1ccc(NC(=O)Nc2ccc(-c3nc(N4CCOCC4)c4nnn(-c5cccc(C(N)=O)c5)c4n3)cc2)cc1
35 | 0.614 | 0.00145 | CCn1nnc2c(N3CCOCC3)nc(-c3ccc(NC(=O)Nc4ccc(NC(=O)N5CCC(N(C)C)CC5)cc4)cc3)nc21
36 | 0.601 | 0.0017 | CCn1nnc2c(N3CCOCC3)nc(-c3ccc(NC(=O)Nc4ccc(NC(=O)NCCN5CCCC5)cc4)cc3)nc21
37 | 0.6 | 0.00165 | CCn1nnc2c(N3CCOCC3)nc(-c3ccc(NC(=O)Nc4ccc(NC(=O)N5CCCN(C)CC5)cc4)cc3)nc21
38 | 0.599 | – | CCn1nnc2c(N3CCOC[C@@H]3C)nc(-c3ccc(NC(=O)Nc4ccc(C(=O)NCCN5CCCC5)cc4)cc3)nc21
39 | 0.594 | 0.0033 | CCn1nnc2c(N3CCOCC3)nc(-c3ccc(NC(=O)Nc4ccc(NC(=O)NCc5ccccn5)cc4)cc3)nc21
40 | 0.586 | 0.00185 | CCn1nnc2c(N3CCOCC3)nc(-c3ccc(NC(=O)Nc4ccc(NC(=O)N5CCN(C)CC5)cc4)cc3)nc21
41 | 0.585 | – | CC(C)n1nnc2c(N3CCOCC3)nc(-c3ccc(NC(=O)Nc4ccc(C(=O)N5CCN(C)CC5)cc4)cc3)nc21
42 | 0.581 | – | CCn1nnc2c(N3CCOCC3)nc(-c3ccc(NC(=O)Nc4ccc(NCc5ccc(OC)nc5)cc4)cc3)nc21
43 | 0.574 | 0.00165 | CCn1nnc2c(N3CCOCC3)nc(-c3ccc(NC(=O)Nc4ccc(NC(=O)NCCN(C)C)cc4)cc3)nc21
44 | 0.574 | 0.00133 | CCn1nnc2c(N3CCOCC3)nc(-c3ccc(NC(=O)Nc4ccc(NC(=O)CN(C)C)cc4)cc3)nc21
45 | 0.561 | – | CCn1nnc2c(N3CCOCC3)nc(-c3ccc(NC(=O)Nc4ccc(NC(=O)NCCOC)cc4)cc3)nc21
46 | 0.543 | – | CCn1nnc2c(N3CCOCC3)nc(-c3ccc(NC(=O)Nc4ccc(N5CCN(C)CC5)cc4)cc3)nc21
47 | 0.504 | – | CC(C)n1nnc2c(N3CCOCC3)nc(-c3ccc(NC(=O)Nc4ccc([N+](=O)[O-])cc4)cc3)nc21
48 | 0.49 | 0.0033 | CCn1nnc2c(N3CCOCC3)nc(-c3ccc(NC(=O)Nc4ccc(C(=O)O)nc4)cc3)nc21
49 | 0.0053 | 0.02 | O=C(Nc1ccncc1)Nc1ccc(-c2nc(N3CCOCC3)c3nnn(CCO)c3n2)cc1

From the Kinase Knowledgebase extract (Sharma et al. 2016)
